Measured values from patent publication US9056832B2, “Pyridine compounds and the users thereof” (Purdue Pharma L.P., priority 2010, dated 2015).
Read-outs that look alike come from different tables or passages of the source.

Legend:
human Nav1.7 = human Nav1.7 (Homo sapiens (Human), UniProt Q15858); experiment: FLIPR or FLIPR TETRA sodium dye assay with KCl and test article pre-incubation; format: cell-based; settings: read-out: Nav1.7 IC50 (μM) ± SEM
[1] = system: neuropathic hyperalgesia in rats; experiment: Seltzer model (partial sciatic nerve ligation) of neuropathic pain, paw withdrawal threshold; format: in vivo; settings: 30 mg/kg p.o., rat; for Time post-dose (h) with statistically significant increase in paw withdrawal threshold: Seltzer model, assessed 1, 3 and 5 h after administration
Experimental: Test Animals: Each experiment uses rats weighing between 200-260 g at the start of the experiment. The rats are group-housed and have free access to food and water at all times, except prior to oral administration of a test compound when food is removed for 16 hours before dosing. A control group acts as a comparison to rats treated with a compound of Formulae I-XXXIII. The control group is administered the carrier as used for the test compound. The volume of carrier administered to the control group is the same as the volume of carrier and test compound administered to the test group.
In the Seltzer model, the partial sciatic nerve ligation model of neuropathic pain was used to produce neuropathic hyperalgesia in rats (Seltzer et al., Pain 43:205-218 (1990)). Partial ligation of the left sciatic nerve was performed under inhalation anesthesia, e.g., isoflurane/O2. Following induction of anesthesia, the left thigh of the rat was shaved and the sciatic nerve exposed at high thigh level through a small incision and was carefully cleared of surrounding connective tissues at a site near the trocanther just distal to the point at which the posterior biceps semitendinosus nerve branches off of the common sciatic nerve. A 7-0 silk suture was inserted into the nerve, e.g., with a ⅜ curved, reversed-cutting mini-needle, and tightly ligated so that the dorsal ⅓ to ½ of the nerve thickness was held within the ligature. The wound was closed, e.g., with a single muscle suture (4-0 nylon (Vicryl)) and vetbond tissue glue. Following surgery, the wound area was dusted with antibiotic powder. Sham-treated rats undergo an identical surgical procedure except that the sciatic nerve is not manipulated. Following surgery, animals were weighed and placed on a warm pad until they recovered from anesthesia. Animals were then returned to their home cages until behavioral testing began. The animals were assessed for response to noxious mechanical stimuli by determining PWT, as described below, prior to surgery (baseline), then immediately prior to and 1, 3, and 5 hours after drug administration for rear paw of the animal. Percentage reversal of neuropathic hyperalgesia is defined as: […]
The following compounds were tested and produced a statistically significant increase in paw withdrawal threshold when administered at 30 mg/kg p.o. in the Seltzer model of neuropathic pain at the time points indicated:
Mechanical Hyperalgesia: Sensitivity to noxious mechanical stimuli can be measured in animals using the paw pressure test to assess mechanical hyperalgesia. In rats, hind paw withdrawal thresholds (“PWT”), measured in grams, in response to a noxious mechanical stimulus are determined using an analgesymeter (Model 7200, commercially available from Ugo Basile of Italy), as described in Stein (Biochemistry & Behavior 31: 451-455 (1988)). The rat's paw is placed on a small platform, and weight is applied in a graded manner up to a maximum of 250 grams. The endpoint is taken as the weight at which the paw is completely withdrawn. PWT is determined once for each rat at each time point. PWT can be measured only in the injured paw, or in both the injured and non-injured paw. In one non-limiting embodiment, mechanical hyperalgesia associated with nerve injury induced pain (neuropathic pain) can be assessed in rats. Rats are tested prior to surgery to determine a baseline, or normal, PWT. Rats are tested again 2 to 3 weeks post-surgery, prior to, and at different times after (e.g. 1, 3, 5 and 24 hr) drug administration.

[2] = recombinant human Nav1.7 in HEK293 cells, CoroNa Green sodium dye, veratridine + scorpion venom

Chain of human Nav1.7 (Q15858 other isoform, or with tags, fused parts or gaps): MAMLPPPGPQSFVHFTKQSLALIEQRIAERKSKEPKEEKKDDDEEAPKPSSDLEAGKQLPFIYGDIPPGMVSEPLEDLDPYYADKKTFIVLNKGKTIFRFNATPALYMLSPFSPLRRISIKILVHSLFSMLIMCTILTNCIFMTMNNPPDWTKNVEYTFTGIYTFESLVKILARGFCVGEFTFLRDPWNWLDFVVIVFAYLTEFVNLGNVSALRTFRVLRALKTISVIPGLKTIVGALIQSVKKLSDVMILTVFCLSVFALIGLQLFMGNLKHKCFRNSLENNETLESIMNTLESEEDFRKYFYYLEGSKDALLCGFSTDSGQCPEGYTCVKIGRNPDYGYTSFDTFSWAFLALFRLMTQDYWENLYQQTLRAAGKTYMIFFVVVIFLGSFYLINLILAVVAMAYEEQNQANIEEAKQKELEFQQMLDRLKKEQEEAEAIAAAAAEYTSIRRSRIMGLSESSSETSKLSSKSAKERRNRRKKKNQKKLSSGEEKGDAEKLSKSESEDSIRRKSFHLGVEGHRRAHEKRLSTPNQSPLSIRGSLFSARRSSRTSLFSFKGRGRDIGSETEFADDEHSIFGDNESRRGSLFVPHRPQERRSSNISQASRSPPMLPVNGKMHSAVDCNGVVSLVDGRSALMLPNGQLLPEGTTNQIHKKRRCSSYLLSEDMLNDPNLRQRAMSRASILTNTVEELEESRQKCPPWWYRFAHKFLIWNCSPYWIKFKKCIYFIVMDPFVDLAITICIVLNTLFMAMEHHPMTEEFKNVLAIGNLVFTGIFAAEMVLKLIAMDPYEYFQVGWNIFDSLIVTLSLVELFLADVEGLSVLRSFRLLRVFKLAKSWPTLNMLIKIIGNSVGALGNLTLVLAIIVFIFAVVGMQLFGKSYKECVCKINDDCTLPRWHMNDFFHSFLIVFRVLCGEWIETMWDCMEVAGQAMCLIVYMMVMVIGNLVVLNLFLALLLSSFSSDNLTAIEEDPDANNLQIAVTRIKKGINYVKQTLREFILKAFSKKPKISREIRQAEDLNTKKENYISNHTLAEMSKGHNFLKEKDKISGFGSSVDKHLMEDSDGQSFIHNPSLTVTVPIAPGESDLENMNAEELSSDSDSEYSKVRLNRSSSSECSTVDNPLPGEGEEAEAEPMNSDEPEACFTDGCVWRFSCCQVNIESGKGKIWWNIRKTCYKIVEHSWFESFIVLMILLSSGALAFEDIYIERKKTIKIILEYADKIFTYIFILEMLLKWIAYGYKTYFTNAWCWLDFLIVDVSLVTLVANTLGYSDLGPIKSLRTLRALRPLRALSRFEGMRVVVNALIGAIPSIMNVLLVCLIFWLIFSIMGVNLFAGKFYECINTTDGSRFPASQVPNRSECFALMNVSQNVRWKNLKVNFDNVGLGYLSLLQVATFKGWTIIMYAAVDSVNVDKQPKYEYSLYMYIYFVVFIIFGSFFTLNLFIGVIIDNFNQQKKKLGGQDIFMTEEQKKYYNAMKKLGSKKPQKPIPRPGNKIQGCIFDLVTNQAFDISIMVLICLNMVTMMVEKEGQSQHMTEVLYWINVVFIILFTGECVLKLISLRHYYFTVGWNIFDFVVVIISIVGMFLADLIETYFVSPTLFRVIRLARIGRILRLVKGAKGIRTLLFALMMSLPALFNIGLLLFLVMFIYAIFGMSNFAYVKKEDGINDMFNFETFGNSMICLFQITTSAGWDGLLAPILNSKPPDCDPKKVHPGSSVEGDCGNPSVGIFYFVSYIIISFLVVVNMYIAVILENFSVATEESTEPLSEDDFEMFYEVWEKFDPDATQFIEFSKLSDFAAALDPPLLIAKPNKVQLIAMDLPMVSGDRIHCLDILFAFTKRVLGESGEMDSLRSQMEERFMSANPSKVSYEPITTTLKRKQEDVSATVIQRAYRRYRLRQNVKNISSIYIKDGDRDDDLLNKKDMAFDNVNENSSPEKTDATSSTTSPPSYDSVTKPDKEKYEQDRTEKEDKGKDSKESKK

Compound | IC50 (human Nav1.7) [µM] | Time post-dose (h) with statistically significant increase in paw withdrawal threshold [1] [h] | IC50 (human Nav1.7; [2]) [µM] | increase in paw withdrawal threshold in the Seltzer model ([1]; vehicle 10% Tween 80 in water)
N#Cc1cc(Oc2ccc(-c3cccc([C@H](O)CO)n3)cc2)ccc1C(F)(F)F [compound 18, (S)-5-(4-(6-(1,2-dihydroxyethyl)pyridin-2-yl)phenoxy)-2-(trifluoromethyl) benzonitrile] | 2.8 ± 0.12 | 1 |  | 
N#Cc1cc(C(F)(F)F)ccc1Oc1ccc(-c2cccc(CNCCN3CCNC3=O)n2)cc1 [compound 63, 2-(4-(6-(((2-(2-oxoimidazolidin-1-yl)ethyl)amino)methyl)pyridin-2-yl)phenoxy)-5-(trifluoromethyl) benzonitrile] |  |  | 0.09 ± 0.03 | did not produce a statistically significant increase
OC[C@H](O)c1cccc(-c2ccc(Oc3ccc(C(F)(F)F)cc3)cc2)n1 [compound 5, (R)-1-(6-(4-(4-(trifluoromethyl)phenoxy)phenyl)pyridin-2-yl)ethane-1,2-diol] | 0.16 ± 0.07 | 1 |  | 
O=C1NCCN1CCNCc1cccc(-c2ccc(Oc3ccc(C(F)(F)F)cn3)cc2)n1 [compound 68, 1-(2-(((6-(4-((5-(trifluoromethyl)pyridin-2-yl)oxy)phenyl)pyridin-2-yl)methyl)amino)ethyl) imidazolidin-2-one] |  | 1 | 0.18 ± 0.09 | 
